Molecular target: human SPR (Homo sapiens (Human), UniProt P35270)
Assay: Evaluation Example 2: Measurement of human SPR inhibitory activity (seven concentrations, sepiapterin absorbance at 420 nm)
Type: biochemical
Details: Evaluation Example 2, seven concentrations 0.14 nM to 100 nM, 240 minutes at room temperature, read-out: IC50
How it was run: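 Reactions ran 240 min at room temperature in 100 mM Tris-HCl pH 7.5 with 0.01% BSA. They contained tag-cleaved, E. coli-expressed full-length human SPR (diluted to 150 ng/mL), seven compound concentrations from 0.14 to 100 nM, and sepiapterin/NADPH added as a 120 μM/160 μM solution. Inhibition was calculated from sepiapterin absorbance at 420 nm.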

human SPR, sequence (P35270 whole entry): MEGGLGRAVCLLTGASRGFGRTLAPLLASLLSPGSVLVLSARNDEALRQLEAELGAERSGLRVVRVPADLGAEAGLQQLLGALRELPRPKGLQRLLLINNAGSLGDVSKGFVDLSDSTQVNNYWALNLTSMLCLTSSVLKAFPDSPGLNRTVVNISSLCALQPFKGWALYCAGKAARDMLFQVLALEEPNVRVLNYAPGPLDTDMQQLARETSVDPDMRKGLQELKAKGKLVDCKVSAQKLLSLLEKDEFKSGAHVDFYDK

Row | Structure (SMILES) | IC50 [nM]
1 | Cc1nn2c(O)c(C(=O)NC3CC3)c(=O)n(CC(C)C)c2c1/C=C/C(=O)N1CCCC12CC2 [Synthesis Example 652, (E)-N-Cyclopropyl-7-hydroxy-4-isobutyl-2-methyl-5-oxo-3-(3-oxo-3-(4-azaspiro[2.4]heptan-4-yl)prop-1-en-1-yl)-4,5-dihydropyrazolo[1,5-a]pyrimidine-6-carboxamide] | 2.18
2 | CCc1nn2c(O)c(C(=O)NC3CC3)c(=O)n(CC(C)C)c2c1/C=C/C(=O)N1CCOC[C@@H]1C [Synthesis Example 653, (S,E)-N-Cyclopropyl-2-ethyl-7-hydroxy-4-isobutyl-3-(3-(3-methylmorpholino)-3-oxoprop-1-en-1-yl)-5-oxo-4,5-dihydropyrazolo[1,5-a]pyrimidine-6-carboxamide] | 0.74
3 | CCc1nn2c(O)c(C(=O)NC3CC3)c(=O)n(CC(C)C)c2c1/C=C/C(=O)N1CCC[C@@H]1C(C)(C)O [Synthesis Example 654, (R,E)-N-Cyclopropyl-2-ethyl-7-hydroxy-3-(3-(2-(2-hydroxypropan-2-yl)pyrrolidin-1-yl)-3-oxoprop-1-en-1-yl)-4-isobutyl-5-oxo-4,5-dihydropyrazolo[1,5-a]pyrimidine-6-carboxamide] | 0.95
4 | Cc1nn2c(O)c(C(=O)NC3CC3)c(=O)n(CC(C)(C)C)c2c1/C=C/C(=O)N1CCC[C@@H]1C(C)(C)O [Synthesis Example 655, (R,E)-N-Cyclopropyl-7-hydroxy-3-(3-(2-(2-hydroxypropan-2-yl)pyrrolidin-1-yl)-3-oxoprop-1-en-1-yl)-2-methyl-4-neopentyl-5-oxo-4,5-dihydropyrazolo[1,5-a]pyrimidine-6-carboxamide] | 1.05
5 | Cc1nn2c(O)c(C(=O)NC3CC3)c(=O)n(CC(C)C)c2c1/C=C/C(=O)N1CCOCC1(C)C [Synthesis Example 656, (E)-N-Cyclopropyl-3-(3-(3,3-dimethylmorpholino)-3-oxoprop-1-en-1-yl)-7-hydroxy-4-isobutyl-2-methyl-5-oxo-4,5-dihydropyrazolo[1,5-a]pyrimidine-6-carboxamide] | 1.15
6 | Cc1nn2c(O)c(C(=O)NC3CC3)c(=O)n(CC(C)C)c2c1/C=C/C(=O)N1CCOC(C)(C)C1 [Synthesis Example 657, (E)-N-Cyclopropyl-3-(3-(2,2-dimethylmorpholino)-3-oxoprop-1-en-1-yl)-7-hydroxy-4-isobutyl-2-methyl-5-oxo-4,5-dihydropyrazolo[1,5-a]pyrimidine-6-carboxamide] | 0.92
7 | Cc1nn2c(O)c(C(=O)NC3CC3)c(=O)n(CC(C)C)c2c1/C=C/C(=O)N1C2CCC1COC2 [Synthesis Example 658, (E)-3-(3-(3-Oxa-8-azabicyclo[3.2.1]octan-8-yl)-3-oxoprop-1-en-1-yl)-N-cyclopropyl-7-hydroxy-4-isobutyl-2-methyl-5-oxo-4,5-dihydropyrazolo[1,5-a]pyrimidine-6-carboxamide] | 0.78
8 | CC[C@H]1COCCN1C(=O)/C=C/c1c(C)nn2c(O)c(C(=O)NC3CC3)c(=O)n(CC(C)C)c12 [Synthesis Example 659, (S,E)-N-Cyclopropyl-3-(3-(3-ethylmorpholino)-3-oxoprop-1-en-1-yl)-7-hydroxy-4-isobutyl-2-methyl-5-oxo-4,5-dihydropyrazolo[1,5-a]pyrimidine-6-carboxamide] | 0.83
9 | Cc1nn2c(O)c(C(=O)NC3CC3)c(=O)n(CC(C)C)c2c1/C=C/C(=O)N1CCCC12CCCN(C(=O)OC(C)(C)C)C2 (centres unmarked) [Synthesis Example 660, Tert-butyl (E)-1-(3-(6-(cyclopropylcarbamoyl)-7-hydroxy-4-isobutyl-2-methyl-5-oxo-4,5-dihydropyrazolo[1,5-a]pyrimidin-3-yl)acryloyl)-1,7-diazaspiro[4.5]decane-7-carboxylate] | 3.97
10 | Cc1nn2c(O)c(C(=O)NC3CC3)c(=O)n(CC(C)C)c2c1/C=C/C(=O)N1CCCC12CCN(C(=O)OC(C)(C)C)CC2 [Synthesis Example 661, Tert-butyl (E)-1-(3-(6-(cyclopropylcarbamoyl)-7-hydroxy-4-isobutyl-2-methyl-5-oxo-4,5-dihydropyrazolo[1,5-a]pyrimidin-3-yl)acryloyl)-1,8-diazaspiro[4.5]decane-8-carboxylate] | 2.48
11 | Cc1nn2c(O)c(C(=O)NC3CC3)c(=O)n(CC(C)C)c2c1/C=C/C(=O)N1CCCC12CCCN(C)C2 (centres unmarked) [Synthesis Example 662, (E)-N-Cyclopropyl-7-hydroxy-4-isobutyl-2-methyl-3-(3-(7-methyl-1,7-diazaspiro[4.5]decan-1-yl)-3-oxoprop-1-en-1-yl)-5-oxo-4,5-dihydropyrazolo[1,5-a]pyrimidine-6-carboxamide] | 1.08
12 | CC(=O)N1CCCC2(CCCN2C(=O)/C=C/c2c(C)nn3c(O)c(C(=O)NC4CC4)c(=O)n(CC(C)C)c23)C1 (centres unmarked) [Synthesis Example 663, (E)-3-(3-(7-Acetyl-1,7-diazaspiro[4.5]decan-1-yl)-3-oxoprop-1-en-1-yl)-N-cyclopropyl-7-hydroxy-4-isobutyl-2-methyl-5-oxo-4,5-dihydropyrazolo[1,5-a]pyrimidine-6-carboxamide] | 1.41
13 | Cc1nn2c(O)c(C(=O)NC3CC3)c(=O)n(CC(C)C)c2c1/C=C/C(=O)N1CCCC12CCN(C)CC2 [Synthesis Example 664, (E)-N-Cyclopropyl-7-hydroxy-4-isobutyl-2-methyl-3-(3-(8-methyl-1,8-diazaspiro[4.5]decan-1-yl)-3-oxoprop-1-en-1-yl)-5-oxo-4,5-dihydropyrazolo[1,5-a]pyrimidine-6-carboxamide] | 0.77
14 | CC(=O)N1CCC2(CCCN2C(=O)/C=C/c2c(C)nn3c(O)c(C(=O)NC4CC4)c(=O)n(CC(C)C)c23)CC1 [Synthesis Example 665, (E)-3-(3-(8-Acetyl-1,8-diazaspiro[4.5]decan-1-yl)-3-oxoprop-1-en-1-yl)-N-cyclopropyl-7-hydroxy-4-isobutyl-2-methyl-5-oxo-4,5-dihydropyrazolo[1,5-a]pyrimidine-6-carboxamide] | 0.92
15 | Cc1nn2c(O)c(C(=O)NC3CC3)c(=O)n(CC(C)C)c2c1/C=C/C(=O)N1CCCC12CCN(CC(F)(F)F)CC2 [Synthesis Example 666, (E)-N-Cyclopropyl-7-hydroxy-4-isobutyl-2-methyl-5-oxo-3-(3-oxo-3-(8-(2,2,2-trifluoroethyl)-1,8-diazaspiro[4.5]decan-1-yl)prop-1-en-1-yl)-4,5-dihydropyrazolo[1,5-a]pyrimidine-6-carboxamide] | 2.14
16 | CCN1CCC2(CCCN2C(=O)/C=C/c2c(C)nn3c(O)c(C(=O)NC4CC4)c(=O)n(CC(C)C)c23)CC1 [Synthesis Example 667, (E)-N-Cyclopropyl-3-(3-(8-ethyl-1,8-diazaspiro[4.5]decan-1-yl)-3-oxoprop-1-en-1-yl)-7-hydroxy-4-isobutyl-2-methyl-5-oxo-4,5-dihydropyrazolo[1,5-a]pyrimidine-6-carboxamide] | 0.94
17 | Cc1nn2c(O)c(C(=O)NC3CC3)c(=O)n(CC(C)C)c2c1/C=C/C(=O)N1CCc2cc(F)ccc21 [Synthesis Example 668, (E)-N-Cyclopropyl-3-(3-(5-fluoroindolin-1-yl)-3-oxoprop-1-en-1-yl)-7-hydroxy-4-isobutyl-2-methyl-5-oxo-4,5-dihydropyrazolo[1,5-a]pyrimidine-6-carboxamide] | 7.87
18 | Cc1nn2c(O)c(C(=O)NC3CC3)c(=O)n(CC(C)C)c2c1/C=C/C(=O)N1CCc2cc(C#N)ccc21 [Synthesis Example 669, (E)-3-(3-(5-Cyanoindolin-1-yl)-3-oxoprop-1-en-1-yl)-N-cyclopropyl-7-hydroxy-4-isobutyl-2-methyl-5-oxo-4,5-dihydropyrazolo[1,5-a]pyrimidine-6-carboxamide] | 1.84
19 | Cc1nn2c(O)c(C(=O)NC3CC3)c(=O)n(CC(C)C)c2c1/C=C/C(=O)N1CCc2cc(Br)ccc21 [Synthesis Example 670, (E)-3-(3-(5-Bromoindolin-1-yl)-3-oxoprop-1-en-1-yl)-N-cyclopropyl-7-hydroxy-4-isobutyl-2-methyl-5-oxo-4,5-dihydropyrazolo[1,5-a]pyrimidine-6-carboxamide] | 11.5
20 | Cc1nn2c(O)c(C(=O)NC3CC3)c(=O)n(CC(C)C)c2c1/C=C/C(=O)N1CCN(C2CC(F)(F)C2)C[C@@H]1C [Synthesis Example 671, (S,E)-N-Cyclopropyl-3-(3-(4-(3,3-difluorocyclobutyl)-2-methylpiperazin-1-yl)-3-oxoprop-1-en-1-yl)-7-hydroxy-4-isobutyl-2-methyl-5-oxo-4,5-dihydropyrazolo[1,5-a]pyrimidine-6-carboxamide] | 1.49
21 | Cc1nn2c(O)c(C(=O)NC3CC3)c(=O)n(CC(C)C)c2c1/C=C/C(=O)N1CCC(F)(F)CC1C (centres unmarked) [Synthesis Example 672, (E)-N-Cyclopropyl-3-(3-(4,4-difluoro-2-methylpiperidin-1-yl)-3-oxoprop-1-en-1-yl)-7-hydroxy-4-isobutyl-2-methyl-5-oxo-4,5-dihydropyrazolo[1,5-a]pyrimidine-6-carboxamide] | 0.86
22 | Cc1nn2c(O)c(C(=O)NC3CC3)c(=O)n(CC(C)C)c2c1/C=C/C(=O)N1CCC[C@@H]1c1ccccc1 [Synthesis Example 673, (R,E)-N-Cyclopropyl-7-hydroxy-4-isobutyl-2-methyl-5-oxo-3-(3-oxo-3-(2-phenylpyrrolidin-1-yl)prop-1-en-1-yl)-4,5-dihydropyrazolo[1,5-a]pyrimidine-6-carboxamide] | 1.35
23 | Cc1nn2c(O)c(C(=O)NC3CC3)c(=O)n(CC(C)C)c2c1/C=C/C(=O)N1CCC[C@H]1c1ccccc1 [Synthesis Example 674, (S,E)-N-Cyclopropyl-7-hydroxy-4-isobutyl-2-methyl-5-oxo-3-(3-oxo-3-(2-phenylpyrrolidin-1-yl)prop-1-en-1-yl)-4,5-dihydropyrazolo[1,5-a]pyrimidine-6-carboxamide] | 1.36

From US20240092784A1, “CONDENSED HETEROCYCLIC COMPOUND” (NISSAN CHEMICAL CORPORATION, priority 2020, published 2024)
